Tested on: MDA-MB-468 complex spheroids with HUVEC/MSC, viability
Test: Anticancer human tumor MDA-MB-468 cell line growth inhibition;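 further: spheroids exposed to agents for seven days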;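 on viability, T/C: 100% = DMSO vehicle control viability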
Conditions: for IC50: curve of first compound; for viability, T/C: stronger effect = lower value
In short: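 Multicellular complex spheroids of tumor cells with human endothelial cells (HUVEC) and mesenchymal stem cells; the LSD1 inhibitor iadademstat was combined with standard-of-care or investigational agents. Top concentration at or near clinical Cmax, half-log dilutions; final DMSO ≤0.25%.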

[1] = second compound 0.1 µM, first compound 0.00316 µM
[2] = second compound 0.1 µM, first compound 0.01 µM
[3] = second compound 0.1 µM, first compound 0.0316 µM
[4] = second compound 0.1 µM, first compound 0.1 µM
[5] = second compound 0.316 µM, first compound 0.00316 µM
[6] = second compound 0.316 µM, first compound 0.01 µM
[7] = second compound 0.316 µM, first compound 0.0316 µM
[8] = second compound 0.316 µM, first compound 0.1 µM
[9] = second compound 1 µM, first compound 0.00316 µM
[10] = second compound 1 µM, first compound 0.01 µM
[11] = second compound 1 µM, first compound 0.0316 µM
[12] = second compound 1 µM, first compound 0.1 µM
[13] = second compound 3.16 µM, first compound 0.00316 µM
[14] = second compound 3.16 µM, first compound 0.01 µM
[15] = second compound 3.16 µM, first compound 0.0316 µM
[16] = second compound 3.16 µM, first compound 0.1 µM
[17] = second compound 10 µM, first compound 0.00316 µM
[18] = second compound 10 µM, first compound 0.01 µM
[19] = second compound 10 µM, first compound 0.0316 µM
[20] = second compound 10 µM, first compound 0.1 µM

What does the source list for COc1cc(Nc2ncc3c(n2)-c2ccc(Cl)cc2C(c2c(F)cccc2OC)=NC3)ccc1C(=O)O + NC1CC1c1ccc(-c2cccc(O)c2)cc1?
IC50 (second compound 0.1 µM): < 3.16 nM; IC50 (second compound 0.316 µM): < 3.16 nM; IC50 (second compound 1 µM): < 3.16 nM; IC50 (second compound 3.16 µM): < 3.16 nM; IC50 (second compound 10 µM): < 3.16 nM; viability, T/C [1]: 15.5%; viability, T/C [2]: 6.89%; viability, T/C [3]: 6.01%; viability, T/C [4]: 4.91%; viability, T/C (second compound 0.1 µM, first compound 0.316 µM): 3.38%; viability, T/C (second compound 0.1 µM, first compound 1 µM): 2.48%; viability, T/C [5]: 14.5%; viability, T/C [6]: 6.72%; viability, T/C [7]: 5.86%; viability, T/C [8]: 5.06%; viability, T/C (second compound 0.316 µM, first compound 0.316 µM): 3.01%; viability, T/C (second compound 0.316 µM, first compound 1 µM): 2.59%; viability, T/C [9]: 14.1%; viability, T/C [10]: 7.25%; viability, T/C [11]: 5%; viability, T/C [12]: 4.96%; viability, T/C (second compound 1 µM, first compound 0.316 µM): 2.88%; viability, T/C (second compound 1 µM, first compound 1 µM): 1.8%; viability, T/C [13]: 14.1%; viability, T/C [14]: 8%; viability, T/C [15]: 5.68%; viability, T/C [16]: 5.16%; viability, T/C (second compound 3.16 µM, first compound 0.316 µM): 3.35%; viability, T/C (second compound 3.16 µM, first compound 1 µM): 2.58%; viability, T/C [17]: 12.6%; viability, T/C [18]: 7.29%; viability, T/C [19]: 6.71%; viability, T/C [20]: 5.57%; viability, T/C (second compound 10 µM, first compound 0.316 µM): 3.87%; viability, T/C (second compound 10 µM, first compound 1 µM): 4.35%

With Cn1ncnc1C1c2n[nH]c(=O)c3cc(F)cc(c23)NC1c1ccc(F)cc1 (stereo not given) + NC1CC1c1ccc(-c2cccc(O)c2)cc1 as the compound, how does the IC50 (second compound 0.1 µM) read?
Its IC50 is 87.7 nM.

What about the IC50 (second compound 0.316 µM) of the same compound?
Its IC50 is over 100 nM.

And the IC50 (second compound 1 µM)?
The IC50 was over 100 nM.

What about the IC50 (second compound 3.16 µM) of the same compound?
The IC50 was 12 nM.

And the IC50 (second compound 10 µM)?
The IC50 was 2.6 nM.

What about the viability, T/C (second compound 0.1 µM, first compound 0.000316 µM) of the same compound?
Its viability, T/C is 98.1%.

What about the viability, T/C (second compound 0.1 µM, first compound 0.001 µM) of the same compound?
Its viability, T/C is 102%.

What about the viability, T/C [1] of the same compound?
Its viability, T/C is 72.5%.

And the viability, T/C [2]?
Its viability, T/C is 73.1%.

And the viability, T/C [3]?
The viability, T/C was 64.6%.

What about the viability, T/C [4] of the same compound?
Its viability, T/C is 46.7%.

And the viability, T/C (second compound 0.316 µM, first compound 0.000316 µM)?
Its viability, T/C is 120%.

What about the viability, T/C (second compound 0.316 µM, first compound 0.001 µM) of the same compound?
The viability, T/C was 79.1%.

What about the viability, T/C [5] of the same compound?
The viability, T/C was 67.4%.

What about the viability, T/C [6] of the same compound?
Its viability, T/C is 60.9%.

What about the viability, T/C [7] of the same compound?
The viability, T/C was 52.8%.

And the viability, T/C [8]?
The viability, T/C was 46%.

And the viability, T/C (second compound 1 µM, first compound 0.000316 µM)?
Its viability, T/C is 93.2%.

What about the viability, T/C (second compound 1 µM, first compound 0.001 µM) of the same compound?
Its viability, T/C is 112%.

And the viability, T/C [9]?
The viability, T/C was 67%.

And the viability, T/C [10]?
The viability, T/C was 57.6%.

What about the viability, T/C [11] of the same compound?
Its viability, T/C is 61.9%.

What about the viability, T/C [12] of the same compound?
The viability, T/C was 42.4%.

What about the viability, T/C (second compound 3.16 µM, first compound 0.000316 µM) of the same compound?
The viability, T/C was 92.8%.

And the viability, T/C (second compound 3.16 µM, first compound 0.001 µM)?
The viability, T/C was 85.5%.

What about the viability, T/C [13] of the same compound?
Its viability, T/C is 74.5%.

What about the viability, T/C [14] of the same compound?
The viability, T/C was 48.2%.

What about the viability, T/C [15] of the same compound?
Its viability, T/C is 50.6%.

And the viability, T/C [16]?
The viability, T/C was 39.1%.

What about the viability, T/C (second compound 10 µM, first compound 0.000316 µM) of the same compound?
The viability, T/C was 74.1%.

And the viability, T/C (second compound 10 µM, first compound 0.001 µM)?
The viability, T/C was 67.7%.

What about the viability, T/C [17] of the same compound?
The viability, T/C was 45.9%.

And the viability, T/C [18]?
Its viability, T/C is 33.5%.

What about the viability, T/C [19] of the same compound?
Its viability, T/C is 34.8%.

What about the viability, T/C [20] of the same compound?
Its viability, T/C is 26.3%.

How did the IC50 (second compound 0.1 µM) turn out when NS(=O)(=O)OCC1CC(n2ccc3c(NC4CCc5ccccc54)ncnc32)CC1O (stereo not given) + NC1CC1c1ccc(-c2cccc(O)c2)cc1 was run?
Its IC50 is 11.5 nM.

And the IC50 (second compound 0.316 µM)?
Its IC50 is 11.2 nM.

And the IC50 (second compound 1 µM)?
The IC50 was under 9.49 nM.

And the IC50 (second compound 3.16 µM)?
The IC50 was under 9.49 nM.

And the IC50 (second compound 10 µM)?
The IC50 was under 9.49 nM.

And the viability, T/C (second compound 0.1 µM, first compound 0.00949 µM)?
The viability, T/C was 54.5%.

And the viability, T/C (second compound 0.1 µM, first compound 0.03 µM)?
Its viability, T/C is 28.2%.

And the viability, T/C (second compound 0.1 µM, first compound 0.0949 µM)?
The viability, T/C was 9.26%.

What about the viability, T/C (second compound 0.1 µM, first compound 0.3 µM) of the same compound?
The viability, T/C was 5.09%.

And the viability, T/C (second compound 0.1 µM, first compound 0.949 µM)?
The viability, T/C was 2.96%.

And the viability, T/C (second compound 0.1 µM, first compound 3 µM)?
The viability, T/C was 2.17%.

And the viability, T/C (second compound 0.316 µM, first compound 0.00949 µM)?
Its viability, T/C is 54.2%.

And the viability, T/C (second compound 0.316 µM, first compound 0.03 µM)?
The viability, T/C was 26.2%.

What about the viability, T/C (second compound 0.316 µM, first compound 0.0949 µM) of the same compound?
The viability, T/C was 9.29%.

And the viability, T/C (second compound 0.316 µM, first compound 0.3 µM)?
The viability, T/C was 5.11%.

And the viability, T/C (second compound 0.316 µM, first compound 0.949 µM)?
Its viability, T/C is 3%.

What about the viability, T/C (second compound 0.316 µM, first compound 3 µM) of the same compound?
The viability, T/C was 2.26%.

What about the viability, T/C (second compound 1 µM, first compound 0.00949 µM) of the same compound?
Its viability, T/C is 45.8%.

And the viability, T/C (second compound 1 µM, first compound 0.03 µM)?
The viability, T/C was 20.7%.

And the viability, T/C (second compound 1 µM, first compound 0.0949 µM)?
Its viability, T/C is 9.67%.

What about the viability, T/C (second compound 1 µM, first compound 0.3 µM) of the same compound?
The viability, T/C was 4.9%.

What about the viability, T/C (second compound 1 µM, first compound 0.949 µM) of the same compound?
The viability, T/C was 3.15%.

What about the viability, T/C (second compound 1 µM, first compound 3 µM) of the same compound?
The viability, T/C was 2.38%.

And the viability, T/C (second compound 3.16 µM, first compound 0.00949 µM)?
The viability, T/C was 36.5%.

And the viability, T/C (second compound 3.16 µM, first compound 0.03 µM)?
Its viability, T/C is 18.4%.

What about the viability, T/C (second compound 3.16 µM, first compound 0.0949 µM) of the same compound?
The viability, T/C was 9.14%.

What about the viability, T/C (second compound 3.16 µM, first compound 0.3 µM) of the same compound?
The viability, T/C was 5.23%.

And the viability, T/C (second compound 3.16 µM, first compound 0.949 µM)?
Its viability, T/C is 3.44%.

And the viability, T/C (second compound 3.16 µM, first compound 3 µM)?
The viability, T/C was 2.31%.

And the viability, T/C (second compound 10 µM, first compound 0.00949 µM)?
Its viability, T/C is 20.9%.

What about the viability, T/C (second compound 10 µM, first compound 0.03 µM) of the same compound?
Its viability, T/C is 12.1%.

And the viability, T/C (second compound 10 µM, first compound 0.0949 µM)?
The viability, T/C was 5.43%.

What about the viability, T/C (second compound 10 µM, first compound 0.3 µM) of the same compound?
The viability, T/C was 3.74%.

And the viability, T/C (second compound 10 µM, first compound 0.949 µM)?
The viability, T/C was 2.55%.

What about the viability, T/C (second compound 10 µM, first compound 3 µM) of the same compound?
Its viability, T/C is 2.05%.
